Row | melting point | Compound
1 | 113 to 115 °C | COc1ccc(C(=O)Oc2c(C)c(C)c3oc(C)c(-c4ccc(C(C)C)cc4)c3c2C)cc1
2 | 191 to 193 °C | CN1C(=O)C(C(=O)Nc2ccc(Cl)c(Cl)c2)Sc2ccccc21 (configuration not stated)
3 | 197 to 199 °C | COc1ccc(C(=O)Nc2ccccc2)cc1NS(=O)(=O)c1cccc(Cl)c1
4 | 115 to 117 °C | CN(C(CCn1c(=O)cc(Cl)n(C)c1=O)C(=O)O)S(=O)(=O)c1ccc(Oc2ccccc2)cc1 (configuration not stated)
5 | 73 to 75 °C | CC(C)=CCN1CCc2c(sc(N)c2C(=O)c2ccc(Br)cc2)C1
6 | 197 to 198 °C | CCOC(=O)c1cc2cc(Oc3ccc(S(C)(=O)=O)cc3)cc(O)c2[nH]1
7 | 58 to 59 °C | COc1ccc2c(-c3ccccc3)csc2c1
8 | 211 °C | Cc1cc(C#N)cc(C(=O)Nc2nc(C)cs2)n1
9 | > 260 °C | CN(C)C=Nc1[nH]nc(Nc2cccc(Cl)c2)c1C#N
10 | 218 to 220 °C | CC(=O)c1ccc(-n2c(-c3sc(Nc4ccc(Cl)cc4)nc3-c3ccccc3)nc3ccccc3c2=O)cc1
11 | 143 to 145 °C | CCc1c(C(C)C)cc(C(C)C)c(C(C)O)c1-c1ccc(F)cc1 (single isomer, unassigned; (+))
12 | 162 to 163 °C | O=C(O)COCc1ccc(C=CC(=O)N2CCc3c([nH]c4ccccc34)C2c2ccc3c(c2)OCO3)cc1 (configuration not stated)
13 | 174 to 176 °C | Cc1cc(NC(=O)c2ccc(F)cc2)c(C)cc1N
14 | > 300 °C | CC(N)c1ccc(C(=O)O)cc1 (configuration not stated)
15 | 64 °C | CC(C)(C)OC(=O)N1CCC(CO)(c2ccccc2)CC1
16 | 63 to 67 °C | CC(Cc1cccnc1)(NC(=O)OC1C2CC3CC(C2)CC1C3)C(=O)NC(CO)Cc1ccccc1 (configuration not stated)
17 | 135 to 136 °C | Cc1ccc(Oc2noc(=O)n2S(=O)(=O)c2c(C)noc2C)c(C)c1
18 | 161 to 162 °C | CCOC(=O)c1cn(-c2cc3ccccc3cn2)cn1
19 | 139 to 141 °C | CC(=O)c1cc(N2CCCC2)ccc1NC(=O)c1cccc2c1OCO2
20 | 174 to 176 °C | O=C(Cc1ccc2c(c1)OCO2)Nc1cc(C2CC2)n[nH]1

Row | melting point | Compound
21 | 83 to 84 °C | CC(CCCc1ccccc1)Oc1cc(O)c2c(c1)OC(C)(C)CC2=O (configuration not stated)
22 | 129 to 131 °C | COC(=O)c1ccc(OCCCCCCc2ccc3cc(OCc4ccccc4)c(OCc4ccccc4)cc3c2)cc1O
23 | 165 °C | CCCCOc1ccc(-c2ccc(=O)[nH]n2)cc1OC
24 | 80 to 81 °C | CCOC(=O)c1nnn(-c2ccccc2)c1Cl
25 | 76 to 82 °C | CC(=O)OCCc1c(N)cc(OCc2ccccc2)c2ccccc12
26 | 236 °C | COc1cc(OC)c(C(=O)CBr)cc1C(=O)O
27 | 195 to 196 °C | COc1ccc(CSC(=S)N2Cc3[nH]c4ccccc4c3CC2C(=O)O)cc1 (configuration not stated)
28 | 160 to 162 °C | COC(=O)c1c(S(C)(=O)=O)ccc(C(=O)O)c1Cl
29 | 232 to 233 °C | O=S(=O)(Nc1cccc2cc(-c3ncns3)[nH]c12)c1cccs1
30 | 200 to 201 °C | COc1ccc(C(C)=O)cc1S(N)(=O)=O
31 | 147 to 150 °C | CC1(C)OC(=O)C(C(c2ccccc2)c2c[nH]c3ccccc23)C(=O)O1 (configuration not stated)
32 | 220 to 223 °C | CC1(C)CCC(C)(C)c2cc(C#Cc3ccc(C(N)=O)cc3)ccc21
33 | 128 to 130 °C | CCN(CC)C(=O)c1cc(-c2ccccc2)ccc1-c1ccccc1
34 | 173 to 174 °C | CC(C)(C)c1cc(OCc2ccccc2C(=O)O)cc(C(C)(C)C)c1
35 | 245 to 247 °C | O=c1c2c(CCc3cccc([N+](=O)[O-])c3)n[nH]c2c2cccnc2n1-c1ccccc1
36 | 205 °C | CC(=O)c1ccc(N=C(C)c2ccccc2)cc1
37 | 186 to 187 °C | CC(=O)Oc1ccc(NC(=O)c2ccc(Sc3cc4c(cc3C)C(C)(C)CCC4(C)C)cc2)cc1
38 | 202 °C | CC1(C)CCC(C)(C)c2cc3c(=O)ccoc3cc21
39 | 165 to 170 °C | CCC1c2c(C#N)ncn2-c2cnc(Nc3ccc(C(=O)NC4CCN(C5CCN(CC(C)C)CC5)CC4)cc3OC)nc2N1C(C)C (configuration not stated)
40 | 228 to 230 °C | CC(C)(C)c1cc(C(=O)c2ccc(C(=O)O)s2)cc(C(C)(C)C)c1O

Row | melting point | Compound
41 | 180 to 182 °C | CSc1nccc(-n2nnc3ccccc32)n1
42 | 208 to 216 °C | Oc1ccccc1N1CCN(Cc2nc3ccccc3[nH]2)CC1
43 | 166 to 167 °C | CC(C)(C)OC(=O)Nc1ccc2ccc(S(C)(=O)=O)cc2c1Br
44 | 59.5 to 60 °C | CC(=O)c1c(N(C)C)nn2ccccc12
45 | 256 to 258 °C | COc1cc2nc(N)nc(-c3cccc(O)c3)c2cc1OC
46 | 240 to 242 °C | CS(=O)c1ccc(-c2nc3ncccc3[nH]2)cc1 (configuration not stated)
47 | 127 to 128 °C | CC(c1ccc(-c2ccccc2)c(F)c1)c1cc(CO)no1 (configuration not stated)
48 | 138 to 139 °C | CC(=O)C1=C(C)NC(C)=C(c2nc(CN(C)Cc3ccccc3)no2)C1c1cccc([N+](=O)[O-])c1 (configuration not stated)
49 | 144 to 145 °C | CS(=O)(=O)c1ccc(Cc2ccc3ccccc3c2O)cc1
50 | 206 °C | O=C(O)c1c(O)c(-c2ccccc2)nc2ccccc12
51 | 182 to 184 °C | COc1cc(C)c(C=C2COCC(=Cc3cc(C)c(OC)cc3C)C2=O)cc1C
52 | 190 to 194 °C | CN(C)c1ccc(C2(c3ccc(N(C)C)cc3N(C)C)OC(=O)c3ccccc32)cc1 (configuration not stated)
53 | 102 to 103 °C | COc1ccc(SCCCCSc2ccc(OC)cc2)cc1
54 | 155 to 159 °C | COC(=O)c1c(N)ncn1C1c2ccccc2CC2CCCCC21 (configuration not stated)
55 | 115 to 116 °C | COC(=O)c1cc(OC)c(N=Nc2ccccc2)c(OC)c1
56 | 220 to 222 °C | CN1Cc2ccc(NC(=O)N[C@@H]3c4cc(C#N)ccc4OC(C)(C)[C@H]3O)cc2C1
57 | 130 to 131 °C | COc1ccc(CCc2oc3ccc(C#N)cc3c2C(C)=O)cc1
58 | 131 to 133 °C | Cc1cccc(C(=O)NCN2CCN(c3ccccc3C#N)CC2)c1
59 | 94 to 96 °C | CSC(SC)=C(Cl)c1cccc(C(=O)c2ccccc2)c1
60 | 79.4 to 81 °C | COC(=O)CC[C@@H](Cc1cn(CCCc2ccccc2)c2ccccc12)NC(=O)CCCCCCc1ccccc1

The next lines start with the compound.

Row | Compound | melting point
61 | CCCCc1c(Cl)nc(N=CN(C)C)nc1Cl | 66 to 68 °C
62 | CS(=O)(=O)N1CCC(NC(=O)Nc2cccc(C(F)(F)F)c2)CC1 | 226 to 229 °C
63 | CC12CCC(O)CC1CCC1C2CCC2(C)C(C(=O)COc3cccnc3)CCC12 (configuration not stated) | 63 to 66 °C
64 | Cc1ccc(C2CCN(C(=O)Nc3ccc4nc(CN5C(C)(C)CCCC5(C)C)ccc4c3)CC2)cc1 | 200 to 202 °C
65 | O=C1CCCc2cc(O)ccc21 | 153 to 155 °C
66 | Cc1ccc(S(=O)(=O)Oc2ccc(S(=O)(=O)Cc3cccnn3)cc2)cc1 | 161 °C
67 | CCCCNC(=O)N(N)CCCC | 34 to 36 °C
68 | N#Cc1ncn2c1[C@@H]1CCN1C(=O)c1c-2ccc(F)c1Cl | 225 to 228 °C
69 | BrCCOc1ccc(Cn2cccn2)cc1 | 63 to 65 °C
70 | Cc1c(N2C[C@@H](N)C(C)(C)C2)c(F)c(N)c2c(=O)c(C(=O)O)cn(C3CC3)c12 | 192 to 193 °C
71 | Clc1ccc2nc(CBr)c(CBr)nc2c1 | 149 to 150 °C
72 | N#Cc1ccc2oc(CCCCc3cc4cc(C#N)ccc4o3)cc2c1 | 187 to 188 °C
73 | CN(C)c1cc2nc(C(=O)O)c(=O)[nH]c2cc1[N+](=O)[O-] | 194 to 196 °C
74 | Cc1ccc(C=CCN2CCc3nc(N)sc3CC2)cn1 | 180 to 184 °C
75 | CC(C)(C)OC(=O)N1CCN(Cc2ccc(Cl)c(Cl)c2)CC1 | 75 to 76 °C
76 | Nc1ccc(C2=NCCO2)cc1 | 163 to 165 °C
77 | CC(=O)OC1CCC2(C)C3=C(CCC2C1)C1CCC(C(C)=O)C1(C)CC3=O (configuration not stated) | 169 to 172 °C
78 | CCOC(=O)c1cn(C2CC2)c2c(OC(F)F)c(F)c(F)c(N)c2c1=O | 295 to 296 °C
79 | Cc1cc(C)c(CC(=O)NNC(=O)OC(C)(C)C)c(C)c1 | 138 to 140 °C
80 | C[C@@H]1C(=O)C[C@H]2C[C@@H]1OO[C@@]2(C)/C=C\c1ccc(Br)c2ccccc12 | 167 °C
81 | NS(=O)(=O)c1ccccc1CCC(F)(F)F | 148 to 149 °C

Row | Compound | melting point
82 | CC1CC(=O)NN=C1c1ccc(Nc2ccccc2)nc1 (configuration not stated) | 202 to 204 °C
83 | CC1(C)CC(C)(C)CC2(CCCC(=O)N2)C1 | 126 to 128 °C
84 | N#Cc1cc([N+](=O)[O-])c(N)cc1F | 197 to 199 °C
85 | CC(=O)NCC1CN(c2ccc(N3CCN(c4nnc(C(F)(F)F)s4)CC3)c(F)c2)C(=O)O1 (configuration not stated) | 255 to 257 °C
86 | COc1c(N2CCC(C(O)CO)CC2)c(F)cc2c(=O)c(C(=O)O)cn(C3CC3)c12 (configuration not stated) | 200 to 204 °C
87 | Nc1sc(-c2cccc(F)c2)c(CN(C2CCCCC2)C2CCCCC2)c1C(=O)c1ccc(Cl)cc1 | 205 to 207 °C
88 | CC(C)(C)c1ccc(C(O)CCCn2ccnc2)cc1 (configuration not stated) | 205 to 207 °C
89 | CCCCn1c(=O)c2c(cnn2S(=O)(=O)CCC)n(CCCC)c1=O | 44 to 48 °C
90 | CCCc1nc2c(N)nc3cc(Oc4ccc([N+](=O)[O-])cc4)ccc3c2n1CC(C)C | 209 to 211 °C
91 | NS(=O)(=O)Oc1c(Cl)cccc1Cl | 108 to 110 °C
92 | CCOc1cc(CO)ncc1C | 99 to 101 °C
93 | CCC1(C)CCNC1=O (configuration not stated) | 39 to 40 °C
94 | O=C(NC1CCC(O)CC1)NC12CC3CC(CC(C3)C1)C2 (configuration not stated) | 205 °C
95 | [N-]=[N+]=Nc1cccc2c1C(=O)N(CCCCCC(=O)Cl)C2=O | 68 to 69 °C
96 | C=CCN1C(=O)C2CC2(c2ccc(NC(C)=O)cc2)C1=O (configuration not stated) | 113 to 116 °C
97 | CN1CCCC1c1ccc(Nc2cc(-c3cc(F)cc(N4CCc5c(sc6c5CCCC6)C4=O)c3CO)cn(C)c2=O)nc1 (configuration not stated) | 164 to 166 °C
98 | CCOC(=O)/C(=N\OCC#N)c1csc(N)n1 | 167 to 168 °C
99 | CC(CCC(O)CO)=Nc1ncnc2c1ncn2C1OC(CO)C(O)C1O (configuration not stated) | 102 to 104 °C
100 | CCc1cc(N)cc(CC)n1 | 133 to 137 °C
101 | CN(C)NC(=O)N1CCC(=Cc2cc(C(C)(C)C)c(O)c(C(C)(C)C)c2)C1=O | 133 to 134 °C
102 | N#CC1=C(C2CC2)Nc2n[nH]cc2C1c1cccc(N2CCOCC2)c1 (configuration not stated) | > 260 °C

Reference: a melting point compilation (Tetko et al.; mined from patent text by program, amines drawn as free bases though some values may be those of a salt)
